Test system: healthy subjects
Test: Clinical liver safety laboratory data over time
Type: in vivo, human
Conditions: mean (SD)

`COc1cnc(C(=O)Nc2ccc(F)c([C@]34CN(c5ncc(F)cn5)C[C@H]3CSC(N)=N4)c2)cn1` [LY3202626] was tested, and the Albumin (6 mg daily, Day 8) was 46.3 (1.6) g/L, the GGT (6 mg daily, Day 8) was 21.7 (10.8) U/L and the “Total Bilirubin” value (6 mg daily, Day 8) was 8.1 (2.8) umol/L. The ALP (6 mg daily, Day 10) was 62.9 (15.4) U/L, the ALT (6 mg daily, Day 10) was 17.9 (2.3) U/L and the AST (6 mg daily, Day 10) was 19.6 (6.0) U/L. The Albumin (6 mg daily, Day 10) was 46.0 (1.7) g/L, the GGT (6 mg daily, Day 10) was 20.6 (8.7) U/L and the “Total Bilirubin” value (6 mg daily, Day 10) was 8.2 (2.7) umol/L. The ALP (6 mg daily, Day 12) was 63.6 (17.2) U/L, the ALT (6 mg daily, Day 12) was 16.9 (2.5) U/L and the AST (6 mg daily, Day 12) was 17.2 (3.8) U/L. For the same compound, the Albumin (6 mg daily, Day 12) was 46.7 (1.6) g/L, the GGT (6 mg daily, Day 12) was 20.3 (8.2) U/L and the “Total Bilirubin” value (6 mg daily, Day 12) was 7.4 (2.4) umol/L. The ALP (6 mg daily, Day 14) was 62.2 (16.0) U/L, the ALT (6 mg daily, Day 14) was 15.2 (2.5) U/L and the AST (6 mg daily, Day 14) was 15.3 (4.3) U/L. The Albumin (6 mg daily, Day 14) was 44.4 (1.8) g/L, the GGT (6 mg daily, Day 14) was 19.3 (10.3) U/L and the “Total Bilirubin” value (6 mg daily, Day 14) was 8.1 (5.0) umol/L. The ALP (6 mg daily, Day 15) was 58.9 (14.3) U/L, the ALT (6 mg daily, Day 15) was 16.1 (2.9) U/L and the AST (6 mg daily, Day 15) was 15.9 (3.9) U/L. The Albumin (6 mg daily, Day 15) was 43.8 (2.1) g/L, the GGT (6 mg daily, Day 15) was 18.6 (8.6) U/L and the “Total Bilirubin” value (6 mg daily, Day 15) was 7.3 (3.0) umol/L. The ALP (6 mg daily, Day 17) was 65.0 (18.7) U/L, the ALT (6 mg daily, Day 17) was 19.8 (4.3) U/L and the AST (6 mg daily, Day 17) was 18.9 (3.5) U/L. For the same compound, the Albumin (6 mg daily, Day 17) was 46.0 (1.7) g/L, the GGT (6 mg daily, Day 17) was 20.9 (9.7) U/L and the “Total Bilirubin” value (6 mg daily, Day 17) was 6.3 (4.7) umol/L. For the same compound, the ALP (26 mg daily, Day 1 predose) was 56.9 (12.0) U/L, the ALT (26 mg daily, Day 1 predose) was 16.9 (6.3) U/L and the AST (26 mg daily, Day 1 predose) was 15.2 (2.5) U/L. For the same compound, the Albumin (26 mg daily, Day 1 predose) was 46.3 (1.9) g/L, the GGT (26 mg daily, Day 1 predose) was 18.3 (8.2) U/L and the “Total Bilirubin” value (26 mg daily, Day 1 predose) was 9.0 (2.6) umol/L. The ALP (26 mg daily, Day 2) was 57.9 (11.3) U/L, the ALT (26 mg daily, Day 2) was 15.6 (6.2) U/L and the AST (26 mg daily, Day 2) was 14.6 (2.7) U/L. For the same compound, the Albumin (26 mg daily, Day 2) was 46.2 (1.9) g/L, the GGT (26 mg daily, Day 2) was 18.9 (8.5) U/L and the “Total Bilirubin” value (26 mg daily, Day 2) was 8.6 (2.6) umol/L. For the same compound, the ALP (26 mg daily, Day 3) was 57.2 (11.1) U/L, the ALT (26 mg daily, Day 3) was 16.2 (6.4) U/L and the AST (26 mg daily, Day 3) was 14.9 (3.6) U/L. The Albumin (26 mg daily, Day 3) was 45.0 (2.7) g/L, the GGT (26 mg daily, Day 3) was 18.6 (8.8) U/L and the “Total Bilirubin” value (26 mg daily, Day 3) was 7.1 (2.3) umol/L. For the same compound, the ALP (26 mg daily, Day 4) was 58.6 (10.8) U/L, the ALT (26 mg daily, Day 4) was 16.9 (5.6) U/L and the AST (26 mg daily, Day 4) was 16.8 (3.8) U/L. For the same compound, the Albumin (26 mg daily, Day 4) was 46.0 (1.9) g/L, the GGT (26 mg daily, Day 4) was 19.0 (9.6) U/L and the “Total Bilirubin” value (26 mg daily, Day 4) was 6.7 (1.4) umol/L. The ALP (26 mg daily, Day 6) was 57.6 (12.0) U/L, the ALT (26 mg daily, Day 6) was 16.2 (5.2) U/L and the AST (26 mg daily, Day 6) was 17.8 (3.2) U/L. The Albumin (26 mg daily, Day 6) was 44.9 (2.0) g/L, the GGT (26 mg daily, Day 6) was 18.2 (8.5) U/L and the “Total Bilirubin” value (26 mg daily, Day 6) was 8.6 (3.0) umol/L. For the same compound, the ALP (26 mg daily, Day 8) was 59.3 (10.8) U/L, the ALT (26 mg daily, Day 8) was 16.8 (4.5) U/L and the AST (26 mg daily, Day 8) was 16.4 (3.0) U/L. The Albumin (26 mg daily, Day 8) was 46.3 (2.9) g/L, the GGT (26 mg daily, Day 8) was 18.6 (7.2) U/L and the “Total Bilirubin” value (26 mg daily, Day 8) was 8.6 (4.6) umol/L. The ALP (26 mg daily, Day 10) was 60.7 (11.4) U/L, the ALT (26 mg daily, Day 10) was 15.8 (5.5) U/L and the AST (26 mg daily, Day 10) was 16.1 (2.7) U/L. The Albumin (26 mg daily, Day 10) was 45.8 (2.0) g/L, the GGT (26 mg daily, Day 10) was 17.9 (7.4) U/L and the “Total Bilirubin” value (26 mg daily, Day 10) was 8.7 (4.2) umol/L. The ALP (26 mg daily, Day 12) was 60.1 (9.6) U/L, the ALT (26 mg daily, Day 12) was 16.9 (5.6) U/L and the AST (26 mg daily, Day 12) was 18.3 (3.5) U/L. For the same compound, the Albumin (26 mg daily, Day 12) was 44.9 (2.3) g/L, the GGT (26 mg daily, Day 12) was 17.7 (7.4) U/L and the “Total Bilirubin” value (26 mg daily, Day 12) was 8.3 (4.5) umol/L. The ALP (26 mg daily, Day 14) was 59.3 (10.2) U/L, the ALT (26 mg daily, Day 14) was 17.1 (7.4) U/L and the AST (26 mg daily, Day 14) was 16.3 (4.0) U/L. The Albumin (26 mg daily, Day 14) was 43.7 (2.2) g/L, the GGT (26 mg daily, Day 14) was 18.1 (8.8) U/L and the “Total Bilirubin” value (26 mg daily, Day 14) was 5.8 (2.4) umol/L. For the same compound, the ALP (26 mg daily, Day 15) was 58.6 (9.6) U/L, the ALT (26 mg daily, Day 15) was 16.8 (7.8) U/L and the AST (26 mg daily, Day 15) was 16.2 (4.6) U/L. For the same compound, the Albumin (26 mg daily, Day 15) was 44.0 (2.6) g/L, the GGT (26 mg daily, Day 15) was 17.6 (8.8) U/L and the “Total Bilirubin” value (26 mg daily, Day 15) was 7.2 (1.9) umol/L. For the same compound, the ALP (26 mg daily, Day 17) was 65.7 (11.5) U/L, the ALT (26 mg daily, Day 17) was 20.0 (9.8) U/L and the AST (26 mg daily, Day 17) was 18.6 (6.2) U/L. The Albumin (26 mg daily, Day 17) was 45.9 (1.3) g/L, the GGT (26 mg daily, Day 17) was 20.7 (11.1) U/L and the “Total Bilirubin” value (26 mg daily, Day 17) was 7.3 (4.6) umol/L.

From paper PMC8842743 (Journal of Alzheimer's Disease Reports, 2022)
